Experimental data: patent US20240124470A1, “FIVE-MEMBERED RING DERIVATIVE AND MEDICAL USE THEREOF” (SICHUAN HAISCO PHARMACEUTICAL CO., LTD., priority 2020, published 2024)

Legend:
[1] = target: T1, hERG potassium channel (Homo sapiens, UniProt Q12809); test: Effects on hERG potassium channels, manual whole cell patch-clamp in CHO cells; assay type: cell-based; settings: hERG potassium current, room temperature
T1 construct: expressed in transfected cells
Excerpt: 2. Effects of the Compounds on hERG Potassium Channels
Experimental platform: electrophysiological manual patch-clamp system
Cell line: Chinese hamster ovary (CHO) cells stably expressing hERG potassium ion channel
Experimental method: For CHO (Chinese Hamster Ovary) cells stably expressing hERG potassium channel, whole cell patch-clamp technique was used to recorded hERG potassium channel current at room temperature in this experiment. The glass microelectrode is made of a glass electrode blank (BF150-86-10, Sutter) by a puller. The tip resistance after filling the liquid in the electrode is about 2-5 MΩ. The glass microelectrode can be connected to the patch-clamp amplifier by inserting the glass microelectrode into an amplifier probe. The clamping voltage and data recording are controlled and recorded by the pClamp 10 software through a computer. The sampling frequency is 10 kHz, and the filtering frequency is 2 kHz. After the whole cell records were obtained, the cells were clamped at −80 mV, and the step voltage that induced the hERG potassium current (IhERG) was depolarized from −80 mV to +20 mV for 2 s, then repolarized to −50 mV, and returned to −80 mV after 1 s. This voltage stimulation was given every 10 s, and the administration process was started after the hERG potassium current was confirmed to be stable (at least 1 minute). The compound was administered for at least 1 minute at each test concentration, and at least 2 cells (n≥2) were tested at each concentration.
Data analysis processing was carried out by using pClamp 10, GraphPad Prism 5 and Excel software. The inhibition degree of hERG potassium current (peak value of hERG tail current induced at −50 mV) at different compound concentrations was calculated by the following formula: Inhibition %=[1−(I/Io)]×100%.
Among the formula, Inhibition % represents the percentage of inhibition of hERG potassium current by the compound, and I and Io represent the amplitude of hERG potassium current after and before dosing, respectively.
Compound IC50 was calculated using GraphPad Prism 5 software by fitting according to the following equation:
Y=Bottom+(Top−Bottom)/(1+10^((LogIC50−X)×HillSlope))
Among the equation, X represents the Log value of the tested concentration of the test sample, Y represents the inhibition percentage at the corresponding concentration, and Bottom and Top represent the minimum and maximum inhibition percentage, respectively.

[2] = Stability test in canine liver microsomes; assay type: in vitro ADME; settings: dog
Procedure: (§1) 6. Stability Test in Canine Liver Microsomes At 37° C., 1 μM of the test compound was incubated with canine liver microsomes (0.5 mg/mL) supplemented with NADPH regeneration system for 5, 15, 30, 45 and 60 minutes, and then LC-MS/MS method was used to detect the concentration of the test compound in the generated sample. The half-life (T1/2) and inherent clearance rate (CLint(mic)) of the compound in canine liver microsome solution were obtained by calculating at the corresponding time points and the remaining percentage of the compound.

[3] = Stability test in mouse liver microsomes; assay type: in vitro ADME; settings: mouse liver microsomes 0.5 mg/mL, 1 μM compound, NADPH, 37° C.; for microsomal CLint at 1 μM: read-out: CLint(mic)
Procedure: as §1, with “3.” for “6.”, “Mouse” for “Canine”, “mouse” for “canine”, “10, 20, 30” for “15, 30, 45”

[4] = Stability test in monkey liver microsomes; assay type: in vitro ADME
Procedure: as §1, with “4.” for “6.”, “Monkey” for “Canine”, “monkey” for “canine”

[5] = target: T2, PDE10A1 (Homo sapiens, UniProt Q9Y233); test: PDE10A1 inhibition by fluorescence polarization; assay type: biochemical; settings: PDE10A1 kit, read-out: IC50 (μM), inhibitory effect on PDE10A1
T2 construct: purchased Biomol (BPS Bioscience) BPS-60385
Excerpt: 8. Activity of the Compounds on PDE10A1
In this experiment, the effect of the compounds on the inhibition of PDE10A1 activity was detected by the method of fluorescence polarization. PDE10A1 kit was used for detection (Biomol, BPS-60385). […]

[6] = Stability test in human liver microsomes; assay type: in vitro ADME; settings: human liver microsomes 0.5 mg/mL, 1 μM compound, NADPH, 37° C.
Procedure: as §1, with “7.” for “6.”, “Human” for “Canine”, “human” for “canine”, “10, 20, 30” for “15, 30, 45”

T1 sequence (Q12809 whole entry): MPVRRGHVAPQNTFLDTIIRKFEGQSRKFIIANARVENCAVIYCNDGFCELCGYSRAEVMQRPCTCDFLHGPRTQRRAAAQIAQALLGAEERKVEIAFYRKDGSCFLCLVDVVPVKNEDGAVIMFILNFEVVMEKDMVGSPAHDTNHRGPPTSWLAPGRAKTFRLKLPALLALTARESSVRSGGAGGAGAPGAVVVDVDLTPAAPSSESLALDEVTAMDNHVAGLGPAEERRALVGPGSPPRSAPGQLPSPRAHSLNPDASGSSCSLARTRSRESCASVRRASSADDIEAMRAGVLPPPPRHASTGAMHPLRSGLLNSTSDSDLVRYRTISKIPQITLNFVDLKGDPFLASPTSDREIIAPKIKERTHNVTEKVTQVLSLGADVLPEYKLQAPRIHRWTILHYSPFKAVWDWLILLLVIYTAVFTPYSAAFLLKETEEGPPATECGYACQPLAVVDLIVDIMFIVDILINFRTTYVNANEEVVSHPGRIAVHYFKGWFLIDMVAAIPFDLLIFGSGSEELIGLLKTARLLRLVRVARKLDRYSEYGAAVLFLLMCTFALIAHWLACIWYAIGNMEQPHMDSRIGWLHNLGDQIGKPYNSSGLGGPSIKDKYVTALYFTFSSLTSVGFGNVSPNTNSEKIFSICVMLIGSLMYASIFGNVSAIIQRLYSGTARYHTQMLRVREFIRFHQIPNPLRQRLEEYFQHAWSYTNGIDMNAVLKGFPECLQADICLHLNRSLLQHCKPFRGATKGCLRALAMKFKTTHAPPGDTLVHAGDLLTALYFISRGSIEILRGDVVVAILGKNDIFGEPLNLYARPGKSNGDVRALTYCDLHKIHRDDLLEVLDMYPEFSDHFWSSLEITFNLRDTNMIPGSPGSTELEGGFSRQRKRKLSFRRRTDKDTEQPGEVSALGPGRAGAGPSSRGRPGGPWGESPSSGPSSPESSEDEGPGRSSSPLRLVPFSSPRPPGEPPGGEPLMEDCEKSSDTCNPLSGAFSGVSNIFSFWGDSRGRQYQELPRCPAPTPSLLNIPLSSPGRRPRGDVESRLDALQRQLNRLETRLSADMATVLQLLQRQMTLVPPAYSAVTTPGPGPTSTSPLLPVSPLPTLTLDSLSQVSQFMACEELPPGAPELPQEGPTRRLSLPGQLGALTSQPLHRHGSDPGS
T2 sequence (Q9Y233 1-779 isoform Q9Y233-1): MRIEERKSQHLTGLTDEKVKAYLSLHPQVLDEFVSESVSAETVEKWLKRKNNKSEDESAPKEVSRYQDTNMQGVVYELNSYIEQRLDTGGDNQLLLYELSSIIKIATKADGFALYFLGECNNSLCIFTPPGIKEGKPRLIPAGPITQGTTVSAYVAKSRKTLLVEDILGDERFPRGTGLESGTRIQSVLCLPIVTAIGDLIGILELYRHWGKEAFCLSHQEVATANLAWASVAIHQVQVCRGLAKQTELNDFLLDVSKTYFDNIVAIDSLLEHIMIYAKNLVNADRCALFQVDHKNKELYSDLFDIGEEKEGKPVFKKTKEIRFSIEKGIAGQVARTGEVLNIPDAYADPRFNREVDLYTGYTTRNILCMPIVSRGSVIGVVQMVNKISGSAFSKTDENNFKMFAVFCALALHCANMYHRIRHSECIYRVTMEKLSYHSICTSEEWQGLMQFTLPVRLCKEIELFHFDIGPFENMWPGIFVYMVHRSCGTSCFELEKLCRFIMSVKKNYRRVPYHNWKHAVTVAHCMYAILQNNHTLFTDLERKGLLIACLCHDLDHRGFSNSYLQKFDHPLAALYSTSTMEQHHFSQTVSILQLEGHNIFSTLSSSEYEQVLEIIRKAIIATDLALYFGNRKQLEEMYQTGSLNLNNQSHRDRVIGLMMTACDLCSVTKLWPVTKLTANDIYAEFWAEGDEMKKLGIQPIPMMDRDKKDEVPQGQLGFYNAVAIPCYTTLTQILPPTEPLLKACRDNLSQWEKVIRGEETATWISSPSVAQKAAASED

| microsomal CLint at 1 μM ([2]; microsomes) [µL/min/mg] | half-life at 1 μM ([2]; canine liver microsomes 0.5 mg/mL, 1 μM compound, NADPH, 37° C.) [days] | half-life at 1 μM [3] [min] | microsomal CLint at 1 μM [3] [µL/min/mg] | half-life at 1 μM ([4]; monkey liver microsomes 0.5 mg/mL, 1 μM compound, NADPH, 37° C.) [min] | microsomal CLint at 1 μM ([4]; monkey, microsomes) [µL/min/mg] | IC50 [5] [µM] | half-life at 1 μM [6] [min] | microsomal CLint at 1 μM ([6]; read-out: CLint(mic)) [µL/min/mg] | Structure (SMILES) | IC50 [1] [µM] |
| --- | --- | --- | --- | --- | --- | --- | --- | --- | --- | --- |
| 0.23 | 4.25 | – | – | – | – | – | – | – | N#Cc1ccc(COc2cccc(C3CCN(Cc4nc5sc(C(=O)O)cc5n4C[C@@H]4CCO4)CC3)n2)c(F)c1 [Compound 1, (S)-2-((4-(6-((4-cyano-2-fluorobenzyl)oxy)pyridin-2-yl)piperidin-1-yl)methyl)-1-(oxetan-2-ylmethyl)-1H-thieno[2,3-d]imidazole-5-carboxylic acid] | 33.6 |
| – | – | 5590 | 0.252 | – | – | – | – | – | CC1(c2ccc(C#N)cc2F)Oc2cccc(C3CCN(Cc4nc5sc(C(=O)O)cc5n4C[C@@H]4CCO4)CC3)c2O1 (stereo partly shown) [Compound 5-2] | > 40 |
| – | – | 1420 | 0.977 | 842 | 1.6 | > 500 | – | – | N#Cc1ccc(COc2cccc(C3=CCN(Cc4nc5sc(C(=O)O)cc5n4C[C@@H]4CCO4)CC3)n2)c(F)c1 [Compound 2, (S)-2-((6-((4-cyano-2-fluorobenzyl)oxy)-3′,6′-dihydro-[2,4′-bipyridin]-1′(2′H)-yl)methyl)-1-(oxetan-2-ylmethyl)-1H-thieno[2,3-d]imidazole-5-carboxylic acid] | 52.2 |
| – | – | 130 | 10.6 | – | – | – | 173 | 8.01 | N#Cc1ccc(COc2cccc(-c3ccc(Cc4nc5ccc(C(=O)O)cc5n4C[C@@H]4CCO4)c(F)c3)n2)c(F)c1 [Compound DZ-6, reference compound] | – |
